Laboratory results published in patent US20200397795A1, “PROPHYLACTIC TREATMENT OF VENOUS THROMBOEMBOLISM” (JANSSEN PHARMACEUTICALS, INC., priority 2019, published 2020).

Tested on: bleeding events in high-risk, medically ill subjects
Details: human, in vivo
Source text: The safety objectives were to compare rivaroxaban with placebo in the following bleeding outcomes in high-risk, medically ill subjects: • Major bleeding using validated International Society on Thrombosis and Haemostasis (ISTH) bleeding criteria. • Non-major clinically relevant (NMCR) bleeding. • Other bleeding.
Safety assessment was based on bleeding events classified by validated ISTH criteria as major bleeding (principal safety outcome), NMCR bleeding, or Other bleeding. […] The safety outcome of NMCR bleeding was defined as overt bleeding not meeting ISTH criteria for major bleeding, but associated with medical intervention, unscheduled contact (visit or telephone call) with a physician, (temporary) cessation of study treatment, or associated with discomfort for the subject such as pain or impairment of activities of daily life. […] Overall safety was also assessed.
The principal safety outcome was major bleeding based on validated ISTH criteria. Treatments were compared using the same statistical model (i.e., Cox proportional hazards model) as that for the primary efficacy outcome. The same analyses were used for NMCR bleeding. Safety analyses were based on the safety analysis set and on-treatment analysis phase. Bleeding events were analyzed based on time from randomization to the first occurrence.

O=C(NC[C@H]1CN(c2ccc(N3CCOCC3=O)cc2)C(=O)O1)c1ccc(Cl)s1 [Rivaroxaban, 5-chloro-N-({(5S)-2-oxo-3-[4-(3-oxo-4-morpholinyl)phenyl]-1,3,oxazolidin-5-yl}methyl)-2-thiophenecarboxamide]
AEs with onset >2 days from stop of study drug, n (%): 419 (7.0) %
Any AEs, n (%) (45 days): 1438 (24.0) %
Discontinued study drug permanently because of NMCR bleeding (45 days): 0.7%
Discontinued study drug permanently due to bleeding (45 days): 1.1%
Major and NMCR bleeding, event rate (45 days): 1.71 100 pt-45 dy
Major bleeding at a critical site, incidence (45 days): 0.05%
Major bleeding, event rate (45 days): 0.28 100 pt-45 dy
NMCR bleeding, event rate (45 days): 1.43 100 pt-45 dy
Other bleeding, event rate (45 days): 0.91 100 pt-45 dy
Post-baseline AEs, n (%) (45 days): 1430 (23.9) %
Post-baseline SAEs, n (%) (45 days): 465 (7.8) %
SAEs with onset >2 days from stop of study drug, n (%) (45 days): 169 (2.8) %
SAEs, n (%) (45 days): 460 (7.8) %
TEAE COPD (45 days): 1.3%
TEAE diarrhoea (45 days): 1.1%
TEAE headache (45 days): 1.6%
TEAEs, n (%) (45 days): 1198 (20.0) %
TESAEs, n (%) (45 days): 337 (5.6) %
